Laboratory results published in patent US9776972B2, “Pyrazole derivatives as arginine methyltransferase inhibitors and uses thereof” (priority 2013, dated 2017).
Where two headings read alike, the source gives them in different places.

What was measured:
human PRMT6 = target: T1, human PRMT6 (Homo sapiens, UniProt Q96LA8); test: PRMT6 Biochemical Assay (3H-SAM Flashplate, peptide substrate)
T1 construct: Flag-PRMT6-His; made in house; host or cells: HEK 293F cells (BacMam baculovirus)
Procedure, shortened: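 Flag-PRMT6-His, expressed in mammalian cells from a BacMam vector, was preincubated with compound for 30 min at room temperature in Bicine pH 7.6 buffer with TCEP, BSG and Tween 20. Reactions were started with ³H-SAM and a biotinylated histone H4 36-50 peptide, then stopped with cold SAM (400 uM final). Labeled peptide was captured on streptavidin Flashplates, counted, and fitted to a 3- or 4-parameter curve.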

[1] = test system: mono-methyl arginine in RKO cells; test: RKO Methylation Assay, In Cell Western (ICW) for mono-methyl arginine and DNA content; type: cell-based; settings: for EC30: Homo sapiens, RKO, 72 h; for EC30 (In Cell Western data): class symbols
Procedure, shortened: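 RKO cells treated with compound for 72 hours at 37 °C, then methanol-fixed and stained overnight at 4 °C with anti-mono-methyl arginine antibody, plus DRAQ5 for DNA. Signal ratio from 700 and 800 nm infrared scans normalized to DMSO (minimum) and 20 μM reference compound (maximum); EC30 from triplicate curves.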

[2] = single experiment or average of multiple experiments, read-out: Biochemical IC50 PRMT6
[3] = RKO cells, 72 hours, mono-methyl arginine, percent activation, single experiment or average of multiple experiments, read-out: EC30 (In Cell Western data, Numerical)
[4] = Biochemical IC50 PRMT6, single experiment or average of multiple experiments
[5] = read-out: EC30 (In Cell Western data, Numerical, μM)
[6] = RKO cells, 72 hours, mono-methyl arginine, percent activation

T1 sequence (Q96LA8 with tags, fused parts or gaps): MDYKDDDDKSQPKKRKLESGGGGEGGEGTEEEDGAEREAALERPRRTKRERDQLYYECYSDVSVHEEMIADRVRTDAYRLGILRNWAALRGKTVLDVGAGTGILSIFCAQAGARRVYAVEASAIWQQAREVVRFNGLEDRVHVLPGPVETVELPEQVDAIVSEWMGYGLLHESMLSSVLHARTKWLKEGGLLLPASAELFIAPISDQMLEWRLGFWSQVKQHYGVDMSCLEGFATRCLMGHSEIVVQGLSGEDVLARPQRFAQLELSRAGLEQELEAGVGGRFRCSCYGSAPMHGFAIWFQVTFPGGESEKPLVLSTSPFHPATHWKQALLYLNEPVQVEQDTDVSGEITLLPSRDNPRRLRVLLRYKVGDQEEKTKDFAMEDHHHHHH

Row | Structure (SMILES) | EC30 [1, 3] [µM] | IC50 (human PRMT6; [4]) [nM] | further results
1 | CN(CCN)Cc1c[nH]nc1-c1ccc(F)cc1 [Compound 1] | 7.4 | – | IC50 (human PRMT6; [2]): 11 nM
2 | CN(CCN)Cc1cn(C)nc1-c1ccc(F)cc1 [Compound 3] | 16.2 | 27 | –
3 | CN(CCN)Cc1cnn(C)c1-c1ccc(F)cc1 [Compound 4] | – | 76.1 | EC30 [1, 5]: 12.1 µM
4 | COCCn1cc(CN(C)CCN)c(-c2ccc(F)cc2)n1 [Compound 5] | > 20 | 467 | –
5 | CNCCN(C)Cc1cnn(CC2CCOCC2)c1-c1ccc(F)cc1 [Compound 12] | – | 191 | –
6 | CNCCN(C)Cc1c[nH]nc1-c1cccc(N)c1 [Compound 32] | – | – | IC50 (human PRMT6; [2]): 22.2 nM; EC30 (In Cell Western data) [1, 6]: C (“C” indicates an EC30 ≧ 12.01 μM)
7 | CNCCN(C)Cc1c[nH]nc1-c1ccc(CC#N)cc1 [Compound 34] | – | – | IC50 (human PRMT6; [2]): 11.3 nM; EC30 (In Cell Western data) [1, 6]: C (“C” indicates an EC30 ≧ 12.01 μM)
8 | CNCCN(C)Cc1c[nH]nc1-c1ccccc1O [Compound 35] | – | – | IC50 (human PRMT6; [2]): 457 nM; EC30 (In Cell Western data) [1, 6]: C (“C” indicates an EC30 ≧ 12.01 μM)
9 | CNCCN(C)Cc1c[nH]nc1-c1cccc(OC(F)(F)F)c1 [Compound 39] | – | 37.8 | –
10 | CNCCN(C)Cc1c[nH]nc1-c1ccccc1NS(C)(=O)=O [Compound 41] | – | – | IC50 (human PRMT6; [2]): 8140 nM; EC30 (In Cell Western data) [1, 6]: C (“C” indicates an EC30 ≧ 12.01 μM)
11 | CNCCN(C)Cc1c[nH]nc1-c1cccc(NC(C)=O)c1 [Compound 42] | – | – | IC50 (human PRMT6; [2]): 47.6 nM; EC30 (In Cell Western data) [1, 6]: C (“C” indicates an EC30 ≧ 12.01 μM)
12 | CNCCN(C)Cc1c[nH]nc1-c1cccc(C(C)=O)c1 [Compound 44] | – | – | IC50 (human PRMT6; [2]): 39.4 nM; EC30 (In Cell Western data) [1, 6]: C (“C” indicates an EC30 ≧ 12.01 μM)
13 | CNCCN(C)Cc1c[nH]nc1-c1ccc(-c2ccccc2)cc1 [Compound 47] | – | – | IC50 (human PRMT6; [2]): 4.76 nM; EC30 (In Cell Western data) [1, 6]: A (“A” indicates an EC30 ≦ 3.00 μM); EC30 (In Cell Western data, Numerical, μM) ([1]; RKO cells, 72 hours, mono-methyl arginine, percent activation, single experiment or average of multiple experiments): 0.104 µM
14 | CNCCN(C)Cc1c[nH]nc1-c1ccccc1F [Compound 48] | – | 44.1 | –
15 | CC(C)Oc1ccc(-c2n[nH]cc2CN(C)CCN)cc1 [Compound 67] | 0.507 | – | –
16 | CN(CCN)Cc1n[nH]cc1-c1ccc(F)cc1 [Compound 69] | 7.99 | 34.2 | –
17 | CN(CCN)Cc1c[nH]nc1-c1cccc(C#N)c1 [Compound 70] | > 20 | 18.9 | –
18 | CN(CCN)Cc1c[nH]nc1-c1cccc(F)c1 [Compound 71] | 3.72 | 8.16 | –
19 | CN(CCN)Cc1c[nH]nc1-c1ccccc1F [Compound 72] | – | 62.9 | –
20 | CN(CCN)Cc1c[nH]nc1-c1ccccc1 [Compound 73] | 14.7 | 25.9 | –

Row | Structure (SMILES) | EC30 [1, 3] [µM] | IC50 (human PRMT6; [4]) [nM] | further results
21 | CN(CCN)Cc1c[nH]nc1-c1ccc(C(C)(C)C)cc1 [Compound 74] | 6.34 | 37.8 | –
22 | CC(C)N(CCN)Cc1c[nH]nc1-c1ccc(F)cc1 [Compound 75] | > 20 | 1640 | –
23 | CN(CCN)Cc1cn(C2COC2)nc1-c1ccc(F)cc1 [Compound 77] | – | 101 | EC30 [1, 5]: 12.5 µM
24 | NCCN(Cc1c[nH]nc1-c1ccc(F)cc1)C1CC1 [Compound 78] | 10.6 | 66.5 | –
25 | CN(CCN)Cc1cnn(C2COC2)c1-c1ccc(F)cc1 [Compound 81] | > 20 | 105 | –
26 | CN(CCN)Cc1c[nH]nc1-c1ccc(N2CCNCC2)cc1 [Compound 82] | > 20 | 129 | –
27 | CN(CCN)Cc1nn(C)cc1-c1ccc(C#N)cc1 [Compound 83] | 6.75 | 52.8 | –
28 | CN(CCN)Cc1c[nH]nc1-c1ccc(C(F)(F)F)cc1C(F)(F)F [Compound 85] | – | 701 | EC30 [1, 5]: > 20 µM
29 | CN(CCN)Cc1c[nH]nc1-c1ccc(Cl)cc1Cl [Compound 86] | 5.63 | 9.16 | –
30 | COc1ccc(-c2n[nH]cc2CN(C)CCN)c(OC)c1 [Compound 87] | > 20 | 103 | –
31 | Cc1ccc(-c2n[nH]cc2CN(C)CCN)c(C)c1 [Compound 88] | 14.5 | 29 | –
32 | CN(CCN)Cc1c[nH]nc1-c1ccc(F)cc1Cl [Compound 89] | 11 | 13.5 | –
33 | Cc1ccc(-c2n[nH]cc2CN(C)CCN)c(Cl)c1 [Compound 90] | 10.4 | 10.2 | –
34 | Cc1ccc(Cl)c(-c2n[nH]cc2CN(C)CCN)c1 [Compound 91] | > 20 | 237 | –
35 | CN(CCN)Cc1c[nH]nc1-c1ccc(C(F)(F)F)cc1 [Compound 92] | 0.956 | 6.45 | –
36 | CN(CCN)Cc1c[nH]nc1-c1ccc(OC(F)(F)F)cc1 [Compound 93] | 1.11 | 10.7 | –
37 | CN(CCN)Cc1c[nH]nc1-c1ccc(OC(F)F)cc1 [Compound 94] | 1.78 | 8.02 | –
38 | CN(CCN)Cc1c[nH]nc1-c1ccc(Cl)cc1 [Compound 95] | 1.23 | 5.61 | –
39 | CC(C)Oc1ccc(-c2n[nH]cc2CN(C)CCN)cc1Cl [Compound 168] | 0.066 | 11 | –
